Laboratory results taken from US20100105655A1, “NOVEL COMPOUNDS 515” (ASTRAZENECA AB, priority 2008, published 2010).

These compounds were tested against T1, IGFR kinase (Homo sapiens, UniProt P08069) (assay: Enzyme assay (c), IGFR kinase, Caliper LabChip). Conditions: 30 nM IGFR kinase, 6 uM ATP, 3 uM peptide mix; read-out: IGFR IC50.
T1 construct: purchased Millipore
Assay type: biochemical

T1 sequence (P08069 31-1367): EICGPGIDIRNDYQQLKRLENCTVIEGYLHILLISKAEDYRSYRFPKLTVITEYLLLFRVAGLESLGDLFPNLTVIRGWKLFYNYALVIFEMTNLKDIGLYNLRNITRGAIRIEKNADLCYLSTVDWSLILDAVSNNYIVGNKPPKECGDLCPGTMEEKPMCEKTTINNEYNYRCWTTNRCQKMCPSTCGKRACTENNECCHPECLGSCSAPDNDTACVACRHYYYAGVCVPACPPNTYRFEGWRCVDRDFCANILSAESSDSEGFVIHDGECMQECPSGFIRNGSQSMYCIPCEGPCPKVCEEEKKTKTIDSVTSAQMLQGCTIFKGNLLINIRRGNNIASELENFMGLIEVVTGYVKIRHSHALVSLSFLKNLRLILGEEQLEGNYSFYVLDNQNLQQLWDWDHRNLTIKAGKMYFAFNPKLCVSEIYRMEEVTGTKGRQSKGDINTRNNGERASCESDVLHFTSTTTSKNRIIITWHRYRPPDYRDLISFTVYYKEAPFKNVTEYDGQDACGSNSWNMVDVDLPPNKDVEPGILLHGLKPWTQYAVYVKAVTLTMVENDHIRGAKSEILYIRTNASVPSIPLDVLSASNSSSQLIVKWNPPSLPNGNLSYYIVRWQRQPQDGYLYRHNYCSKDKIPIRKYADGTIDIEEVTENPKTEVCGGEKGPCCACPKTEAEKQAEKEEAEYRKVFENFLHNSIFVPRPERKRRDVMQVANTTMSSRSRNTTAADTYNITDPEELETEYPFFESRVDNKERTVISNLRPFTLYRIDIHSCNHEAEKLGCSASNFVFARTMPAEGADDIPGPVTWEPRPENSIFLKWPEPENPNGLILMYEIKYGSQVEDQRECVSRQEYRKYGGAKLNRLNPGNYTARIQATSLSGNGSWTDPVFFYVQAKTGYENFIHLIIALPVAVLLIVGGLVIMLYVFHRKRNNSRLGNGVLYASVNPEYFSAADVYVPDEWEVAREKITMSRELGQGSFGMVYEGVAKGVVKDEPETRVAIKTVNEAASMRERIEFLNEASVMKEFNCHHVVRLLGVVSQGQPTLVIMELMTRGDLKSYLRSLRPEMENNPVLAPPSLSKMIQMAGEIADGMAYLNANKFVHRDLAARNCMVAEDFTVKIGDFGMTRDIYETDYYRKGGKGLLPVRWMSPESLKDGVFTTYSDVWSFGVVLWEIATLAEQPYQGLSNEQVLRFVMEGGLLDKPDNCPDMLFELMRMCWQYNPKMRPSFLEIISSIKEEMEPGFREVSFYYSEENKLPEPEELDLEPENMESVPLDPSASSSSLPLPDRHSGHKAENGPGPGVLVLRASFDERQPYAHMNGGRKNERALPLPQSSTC

Row | IC50 | SMILES
1 | 127 nM | COc1cc(OC[C@H]2CCCN2)ccc1Nc1ncc(OC)c(-c2cnc3ccccn23)n1 [Example 96, 4-imidazo[1,2-a]pyridin-3-yl-5-methoxy-N-[2-methoxy-4-[[(2R)-pyrrolidin-2-yl]methoxy]phenyl]pyrimidin-2-amine]
2 | 24 nM | COCCOC(=O)N1CCN(c2ccc(Nc3ncc(Cl)c(-c4cnc5ccccn45)n3)c(OC)c2)CC1 [Example 45, 2-methoxyethyl 4-[4-[(5-chloro-4-imidazo[1,2-a]pyridin-3-yl-pyrimidin-2-yl)amino]-3-methoxy-phenyl]piperazine-1-carboxylate]
3 | 43 nM | COc1cc(N2CCN(C(C)=O)CC2)ccc1Nc1ncc(Cl)c(-c2cnc3cc(CN4CCOCC4)ccn23)n1 [Example 187, 1-[4-[4-[[5-chloro-4-[7-(morpholinomethyl)imidazo[1,2-a]pyridin-3-yl]pyrimidin-2-yl]amino]-3-methoxy-phenyl]piperazin-1-yl]ethanone]
4 | 9 nM | COc1cc(N2CCN(C(C)=O)CC2)ccc1Nc1ncc(Cl)c(-c2cnc3ccc(Br)cn23)n1 [Example 126.1, 1-[4-[4-[[4-(6-bromoimidazo[1,2-a]pyridin-3-yl)-5-chloropyrimidin-2-yl]amino]-3-methoxyphenyl]piperazin-1-yl]ethanone]
5 | 7 nM | COc1cc(N2CC3CN(CC(=O)N(C)C)CC(C2)O3)ccc1Nc1ncc(Cl)c(-c2cnc3c(F)cccn23)n1 [Example 205, 2-[3-[4-[[5-chloro-4-(8-fluoroimidazo[1,2-a]pyridin-3-yl)pyrimidin-2-yl]amino]-3-methoxy-phenyl]-9-oxa-3,7-diazabicyclo[3.3.1]nonan-7-yl]-N,N-dimethyl-acetamide]
6 | 133 nM | COc1cc(N2CCCC2)ccc1Nc1ncc(F)c(-c2cnc3ccccn23)n1 [Example 80, 5-fluoro-4-imidazo[1,2-a]pyridin-3-yl-N-(2-methoxy-4-pyrrolidin-1-yl-phenyl)pyrimidin-2-amine]
7 | 12 nM | COc1ccc(OC[C@H]2CCCN2)cc1Nc1ncc(Cl)c(-c2cnc3ccccn23)n1 [Example 6.4, 5-chloro-4-imidazo[1,2-a]pyridin-3-yl-N-[2-methoxy-5-[[(2R)-pyrrolidin-2-yl]methoxy]phenyl]pyrimidin-2-amine]
8 | 8 nM | COc1cc(C2CN(C(=O)[C@@H](C)O)C2)ccc1Nc1ncc(Cl)c(-c2cnn3ccccc23)n1 [Example 135B]
9 | 2 nM | COc1cc(C2CCN(CC(=O)N(C)C)CC2)ccc1Nc1ncc(Cl)c(-c2cnc3c(F)cccn23)n1 [Example 216, 2-[4-[4-[[5-chloro-4-(8-fluoroimidazo[1,2-a]pyridin-3-yl)pyrimidin-2-yl]amino]-3-methoxy-phenyl]-1-piperidyl]-N,N-dimethyl-acetamide]
10 | 14 nM | COc1cc(N2CCN(C(=O)[C@H](C)OC)CC2)ccc1Nc1ncc(Cl)c(-c2cnc3ccccn23)n1 [Example 25.3, (2S)-1-[4-[4-[(5-chloro-4-imidazo[1,2-a]pyridin-3-yl-pyrimidin-2-yl)amino]-3-methoxy-phenyl]piperazin-1-yl]-2-methoxy-propan-1-one]
11 | 57 nM | COc1cc(N2CCOCC2)ccc1Nc1ncc(C)c(-c2cnc3ccccn23)n1 [Example 100, 4-imidazo[1,2-a]pyridin-3-yl-N-(2-methoxy-4-morpholino-phenyl)-5-methyl-pyrimidin-2-amine]
12 | 5 nM | COc1cc(OC2CCN(C)C2)ccc1Nc1ncc(Br)c(-c2cnc3ccccn23)n1 (stereo not drawn) [Example 123, 5-bromo-4-imidazo[1,2-a]pyridin-3-yl-N-[2-methoxy-4-(1-methylpyrrolidin-3-yl)oxy-phenyl]pyrimidin-2-amine]
13 | 7 nM | COc1cc(N2CC3CNCC(C2)O3)ccc1Nc1ncc(Cl)c(-c2cnn3ccccc23)n1 [Example 149, 5-chloro-N-[2-methoxy-4-(9-oxa-3,7-diazabicyclo[3.3.1]nonan-7-yl)phenyl]-4-pyrazolo[1,5-a]pyridin-3-yl-pyrimidin-2-amine]
14 | 65 nM | COc1cc(OC[C@H]2CCCN2)ccc1Nc1ncc(F)c(-c2cnc3ccccn23)n1 [Example 87, 5-fluoro-4-imidazo[1,2-a]pyridin-3-yl-N-[2-methoxy-4-[[(2R)-pyrrolidin-2-yl]methoxy]phenyl]pyrimidin-2-amine]
15 | 17 nM | COc1cc(C(CO)CO)ccc1Nc1ncc(Cl)c(-c2cnn3ccccc23)n1 [Example 148, 2-[4-[(5-chloro-4-pyrazolo[1,5-a]pyridin-3-yl-pyrimidin-2-yl)amino]-3-methoxy-phenyl]propane-1,3-diol]
16 | 10 nM | COc1cc(N2CCN(C(=O)C3CC3)CC2)ccc1Nc1ncc(Cl)c(-c2cnc3ccccn23)n1 [Example 43, [4-[4-[(5-chloro-4-imidazo[1,2-a]pyridin-3-ylpyrimidin-2-yl)amino]-3-methoxyphenyl]piperazin-1-yl]-cyclopropylmethanone]
17 | 6 nM | COc1cc(C2CCN(C(=O)[C@@H](C)O)CC2)ccc1Nc1ncc(Cl)c(-c2cnc3ccccn23)n1 [Example 28.2, (2R)-1-[4-[4-[(5-chloro-4-imidazo[1,2-a]pyridin-3-yl-pyrimidin-2-yl)amino]-3-methoxy-phenyl]-1-piperidyl]-2-hydroxy-propan-1-one]

Row | IC50 | SMILES
18 | 49 nM | COc1ccc(N2CCN(C(=O)CN(C)C)CC2)cc1Nc1ncc(C)c(-c2cnn3ccccc23)n1 [Example 236, 2-(dimethylamino)-1-[4-[4-methoxy-3-[(5-methyl-4-pyrazolo[1,5-a]pyridin-3-yl-pyrimidin-2-yl)amino]phenyl]piperazin-1-yl]ethanone]
19 | 6 nM | COc1cc(N2CCN(C(=O)[C@H](N)CO)CC2)ccc1Nc1ncc(Cl)c(-c2cnc3ccccn23)n1 [Example 24.12, (2R)-2-amino-1-[4-[4-[(5-chloro-4-imidazo[1,2-a]pyridin-3-yl-pyrimidin-2-yl)amino]-3-methoxy-phenyl]piperazin-1-yl]-3-hydroxy-propan-1-one]
20 | 30 nM | Cc1ccc(N2CC[C@H](N(C)C)C2)cc1Nc1ncc(Cl)c(-c2cnc3ccccn23)n1 [Example 3.14, 5-chloro-N-[5-[(3S)-3-dimethylaminopyrrolidin-1-yl]-2-methyl-phenyl]-4-imidazo[1,2-a]pyridin-3-yl-pyrimidin-2-amine]
21 | 16 nM | CC(=O)N1CCN(c2cc(C)c(Nc3ncc(Cl)c(-c4cnc5ccccn45)n3)cc2F)CC1 [Example 3.33, 1-[4-[4-[(5-chloro-4-imidazo[1,2-a]pyridin-3-yl-pyrimidin-2-yl)amino]-2-fluoro-5-methyl-phenyl]piperazin-1-yl]ethanone]
22 | 11 nM | COc1cc(O[C@@H]2CCNC2)ccc1Nc1ncc(Cl)c(-c2cnc3ccccn23)n1 [Example 6.5, 5-chloro-4-imidazo[1,2-a]pyridin-3-yl-N-[2-methoxy-4-[(3R)-pyrrolidin-3-yl]oxy-phenyl]pyrimidin-2-amine]
23 | 6 nM | COc1cc(N2CCN(C(=O)[C@@H]3C[C@@H](O)CN3)CC2)ccc1Nc1ncc(Cl)c(-c2cnc3ccccn23)n1 [Example 24.9, [4-[4-[(5-chloro-4-imidazo[1,2-a]pyridin-3-yl-pyrimidin-2-yl)amino]-3-methoxy-phenyl]piperazin-1-yl]-[(2S,4R)-4-hydroxypyrrolidin-2-yl]methanone]
24 | 8 nM | CCOc1cc(N2CCN(C)CC2)ccc1Nc1ncc(Br)c(-c2cnc3ccccn23)n1 [Example 122, 5-bromo-N-[2-ethoxy-4-(4-methylpiperazin-1-yl)phenyl]-4-imidazo[1,2-a]pyridin-3-yl-pyrimidin-2-amine]
25 | 10 nM | COc1cc(OCC(=O)N(C)C)ccc1Nc1ncc(Cl)c(-c2cnc3c(F)cccn23)n1 [Example 217, 2-[4-[[5-chloro-4-(8-fluoroimidazo[1,2-a]pyridin-3-yl)pyrimidin-2-yl]amino]-3-methoxy-phenoxy]-N,N-dimethyl-acetamide]
26 | 15 nM | CNC(=O)CN1CCN(c2ccc(Nc3ncc(Cl)c(-c4cnc5ccccn45)n3)c(OC)c2)CC1 [Example 66, 2-[4-[4-[(5-chloro-4-imidazo[1,2-a]pyridin-3-yl-pyrimidin-2-yl)amino]-3-methoxy-phenyl]piperazin-1-yl]-N-methyl-acetamide]
27 | 25 nM | COc1ccc(N2CCN(C(=O)CN(C)C)CC2)cc1Nc1ncc(Cl)c(-c2cnn3ccccc23)n1 [Example 152, 1-[4-[3-[(5-chloro-4-pyrazolo[1,5-a]pyridin-3-yl-pyrimidin-2-yl)amino]-4-methoxy-phenyl]piperazin-1-yl]-2-(dimethylamino)ethanone]
28 | 41 nM | COc1ccc(N2CC[C@H](O)C2)cc1Nc1ncc(Cl)c(-c2cnc3ccccn23)n1 [Example 3.5, (3S)-1-[3-[(5-chloro-4-imidazo[1,2-a]pyridin-3-yl-pyrimidin-2-yl)amino]-4-methoxy-phenyl]pyrrolidin-3-ol]
29 | 5 nM | COc1cc(N2CCN(C(=O)[C@@H](C)O)CC2)ccc1Nc1ncc(Cl)c(-c2cnc3ccc(F)cn23)n1 [Example 255, (2R)-1-[4-[4-[[5-chloro-4-(6-fluoroimidazo[1,2-a]pyridin-3-yl)pyrimidin-2-yl]amino]-3-methoxy-phenyl]piperazin-1-yl]-2-hydroxy-propan-1-one]
30 | 37 nM | COc1cc(N2CCN(C[C@@H](C)O)CC2)ccc1Nc1ncc(F)c(-c2cnc3ccccn23)n1 [Example 90, (2R)-1-[4-[4-[(5-fluoro-4-imidazo[1,2-a]pyridin-3-yl-pyrimidin-2-yl)amino]-3-methoxy-phenyl]piperazin-1-yl]propan-2-ol]
31 | 15 nM | COc1cc(N2CCN(CCO)CC2)ccc1Nc1ncc(Cl)c(-c2cnc3c(F)cccn23)n1 [Example 194, 2-[4-[4-[[5-chloro-4-(8-fluoroimidazo[1,2-a]pyridin-3-yl)pyrimidin-2-yl]amino]-3-methoxy-phenyl]piperazin-1-yl]ethanol]
32 | 210 nM | COc1cc(N2CCN(CCO)[C@@H](C)C2)ccc1Nc1ncc(F)c(-c2cnc3ccccn23)n1 [Example 273, 2-[(2S)-4-[4-[(5-fluoro-4-imidazo[1,2-a]pyridin-3-yl-pyrimidin-2-yl)amino]-3-methoxy-phenyl]-2-methyl-piperazin-1-yl]ethanol]
33 | 10 nM | COc1cc(C2CCNCC2)ccc1Nc1ncc(F)c(-c2cnn3ccccc23)n1 [Example 173, 5-fluoro-N-[2-methoxy-4-(4-piperidyl)phenyl]-4-pyrazolo[1,5-a]pyridin-3-yl-pyrimidin-2-amine]
